The record followed here is ChEMBL document CHEMBL1201862, “PubChem BioAssay data set” (2004).

Activity calls are given as the source filed them. No rule for the calls is given here.

For test [1], the target named is Metabotropic glutamate receptor 4 (Rattus norvegicus, UniProt P31423). Briefly: Modulation of the Metabotropic Glutamate Receptor mGluR4: Rat PAM Potency. [Related pubchem assays (depositor defined):AID2437, AID2807]. Format: functional.
Test [2] addresses NACHT, LRR and PYD domains-containing protein 3 (Homo sapiens, UniProt Q96P20). Briefly: NALP3 inhibitors in yeast, dose response, luminescent (AID 488799). Format: functional.
Test [3] addresses Potassium voltage-gated channel subfamily KQT member 2 (Rattus norvegicus, UniProt O88943, W236L). Briefly: KCNQ2 channel potentiators, dose response, mechanism study for KCNQ2 potentiator project, cell-based, automated electrophysiology (AID 2603). The format is functional.
Test [4] addresses Potassium voltage-gated channel subfamily KQT member 2 (Rattus norvegicus, UniProt O88943). Briefly: retigabine-insensitive KCNQ2 potentiators, concentration-response, dose response, cell-based, retigabine-insensitive compounds (AID 2654). Format: functional.
In the next test the target is X-box-binding protein 1 (Homo sapiens, UniProt P17861). Format: functional, Cricetulus griseus.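 Also: confirmatory dose-response counter-screen serving a CHOP assay.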
Test [5] has as its target T1, Eukaryotic translation initiation factor 2-alpha kinase 3 (Homo sapiens, UniProt Q9NZJ5). Briefly: Dose response cell-based high-throughput screening assay to measure PERK inhibition. [Related pubchem assays: 1416 ]. Format: functional.
Test [6] has as its target T1, Eukaryotic translation initiation factor 2-alpha kinase 3. Briefly: Counterscreen assay for PERK inhibitors: Dose response cell-based high throughput screening assay to measure inhibition of PERK at 6 hours. [Related pubchem assays: 1522, 1416 ]. The format is functional.
Test [7] addresses Lysosomal acid glucosylceramidase (Homo sapiens, UniProt P04062). Briefly: Dose response cell-based high throughput screening assay to identify enhancers of beta-glucosidase activity. [Related pubchem assays: 784 ]. The format is functional.

T1 sequence (Q9NZJ5 whole entry): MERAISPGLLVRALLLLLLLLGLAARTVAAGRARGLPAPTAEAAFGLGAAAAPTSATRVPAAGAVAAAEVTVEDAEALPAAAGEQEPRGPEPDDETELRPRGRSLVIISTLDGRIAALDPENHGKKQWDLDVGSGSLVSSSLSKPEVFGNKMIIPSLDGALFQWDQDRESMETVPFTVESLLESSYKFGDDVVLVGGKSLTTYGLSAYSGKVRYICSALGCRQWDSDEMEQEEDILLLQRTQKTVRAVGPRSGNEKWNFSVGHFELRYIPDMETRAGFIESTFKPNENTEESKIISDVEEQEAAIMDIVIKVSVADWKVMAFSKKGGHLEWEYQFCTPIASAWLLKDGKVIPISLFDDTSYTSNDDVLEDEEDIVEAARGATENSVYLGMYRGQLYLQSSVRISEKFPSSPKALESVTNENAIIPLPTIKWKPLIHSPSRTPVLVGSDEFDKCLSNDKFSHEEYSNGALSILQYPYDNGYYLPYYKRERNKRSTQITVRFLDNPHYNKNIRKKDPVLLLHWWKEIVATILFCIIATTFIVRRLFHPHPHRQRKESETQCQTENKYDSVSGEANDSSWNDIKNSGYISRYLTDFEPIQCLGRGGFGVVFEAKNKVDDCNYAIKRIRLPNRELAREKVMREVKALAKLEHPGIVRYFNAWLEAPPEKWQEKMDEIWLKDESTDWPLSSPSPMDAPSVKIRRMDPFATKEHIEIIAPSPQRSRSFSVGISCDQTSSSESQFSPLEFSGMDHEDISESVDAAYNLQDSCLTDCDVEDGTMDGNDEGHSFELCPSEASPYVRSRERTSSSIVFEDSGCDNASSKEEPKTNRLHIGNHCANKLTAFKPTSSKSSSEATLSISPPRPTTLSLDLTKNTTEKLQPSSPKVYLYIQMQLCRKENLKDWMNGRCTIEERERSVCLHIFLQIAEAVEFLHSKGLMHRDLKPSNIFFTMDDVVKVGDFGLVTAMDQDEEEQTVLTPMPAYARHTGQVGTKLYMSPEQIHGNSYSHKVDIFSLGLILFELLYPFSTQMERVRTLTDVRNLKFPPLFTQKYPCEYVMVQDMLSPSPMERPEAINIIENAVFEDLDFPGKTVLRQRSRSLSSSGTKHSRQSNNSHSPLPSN
Sequence of Potassium voltage-gated channel subfamily KQT member 2 (Rattus norvegicus, UniProt O88943, W236L) (O88943 whole entry W236L): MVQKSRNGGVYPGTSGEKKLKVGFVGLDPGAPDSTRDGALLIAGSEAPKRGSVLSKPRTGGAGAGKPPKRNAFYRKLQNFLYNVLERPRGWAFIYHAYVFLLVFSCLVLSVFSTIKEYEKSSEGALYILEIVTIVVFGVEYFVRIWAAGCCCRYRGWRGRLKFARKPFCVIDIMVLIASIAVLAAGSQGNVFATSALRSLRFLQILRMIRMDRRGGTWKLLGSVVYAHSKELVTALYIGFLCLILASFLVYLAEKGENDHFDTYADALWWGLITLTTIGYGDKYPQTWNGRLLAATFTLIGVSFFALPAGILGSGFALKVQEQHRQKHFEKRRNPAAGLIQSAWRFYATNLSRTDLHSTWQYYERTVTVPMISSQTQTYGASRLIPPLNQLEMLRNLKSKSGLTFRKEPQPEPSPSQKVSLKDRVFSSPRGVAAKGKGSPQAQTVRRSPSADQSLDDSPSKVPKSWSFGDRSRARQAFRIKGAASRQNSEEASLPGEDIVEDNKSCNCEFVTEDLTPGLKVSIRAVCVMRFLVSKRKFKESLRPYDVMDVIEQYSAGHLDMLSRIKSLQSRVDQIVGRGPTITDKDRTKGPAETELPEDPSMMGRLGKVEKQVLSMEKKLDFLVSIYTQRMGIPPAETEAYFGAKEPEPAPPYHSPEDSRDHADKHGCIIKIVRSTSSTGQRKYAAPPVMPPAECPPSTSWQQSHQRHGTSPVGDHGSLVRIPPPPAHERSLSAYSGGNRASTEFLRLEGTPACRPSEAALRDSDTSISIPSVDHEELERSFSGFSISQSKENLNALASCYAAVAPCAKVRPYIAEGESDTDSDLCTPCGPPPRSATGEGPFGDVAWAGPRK
Sequence of Potassium voltage-gated channel subfamily KQT member 2 (Rattus norvegicus, UniProt O88943) (O88943 whole entry): as the sequence (O88943 whole entry W236L) above, with L236W counted along it
Sequence of Lysosomal acid glucosylceramidase (P04062 whole entry): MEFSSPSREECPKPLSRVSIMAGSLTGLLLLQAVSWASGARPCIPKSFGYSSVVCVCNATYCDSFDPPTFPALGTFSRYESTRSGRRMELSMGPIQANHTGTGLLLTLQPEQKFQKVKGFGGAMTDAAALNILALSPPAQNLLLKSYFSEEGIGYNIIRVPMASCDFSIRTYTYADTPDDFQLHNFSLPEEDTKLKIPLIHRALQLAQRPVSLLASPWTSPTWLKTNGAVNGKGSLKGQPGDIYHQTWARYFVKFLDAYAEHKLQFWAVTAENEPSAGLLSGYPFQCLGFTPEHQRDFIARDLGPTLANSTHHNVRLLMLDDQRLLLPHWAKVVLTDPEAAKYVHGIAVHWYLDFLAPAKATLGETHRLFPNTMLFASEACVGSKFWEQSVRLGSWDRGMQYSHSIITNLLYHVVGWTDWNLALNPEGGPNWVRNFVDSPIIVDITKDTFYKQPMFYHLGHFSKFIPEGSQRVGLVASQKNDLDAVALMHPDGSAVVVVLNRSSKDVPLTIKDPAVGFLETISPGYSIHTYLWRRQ
Sequence of NACHT, LRR and PYD domains-containing protein 3 (Q96P20 whole entry, the tested form may be a part): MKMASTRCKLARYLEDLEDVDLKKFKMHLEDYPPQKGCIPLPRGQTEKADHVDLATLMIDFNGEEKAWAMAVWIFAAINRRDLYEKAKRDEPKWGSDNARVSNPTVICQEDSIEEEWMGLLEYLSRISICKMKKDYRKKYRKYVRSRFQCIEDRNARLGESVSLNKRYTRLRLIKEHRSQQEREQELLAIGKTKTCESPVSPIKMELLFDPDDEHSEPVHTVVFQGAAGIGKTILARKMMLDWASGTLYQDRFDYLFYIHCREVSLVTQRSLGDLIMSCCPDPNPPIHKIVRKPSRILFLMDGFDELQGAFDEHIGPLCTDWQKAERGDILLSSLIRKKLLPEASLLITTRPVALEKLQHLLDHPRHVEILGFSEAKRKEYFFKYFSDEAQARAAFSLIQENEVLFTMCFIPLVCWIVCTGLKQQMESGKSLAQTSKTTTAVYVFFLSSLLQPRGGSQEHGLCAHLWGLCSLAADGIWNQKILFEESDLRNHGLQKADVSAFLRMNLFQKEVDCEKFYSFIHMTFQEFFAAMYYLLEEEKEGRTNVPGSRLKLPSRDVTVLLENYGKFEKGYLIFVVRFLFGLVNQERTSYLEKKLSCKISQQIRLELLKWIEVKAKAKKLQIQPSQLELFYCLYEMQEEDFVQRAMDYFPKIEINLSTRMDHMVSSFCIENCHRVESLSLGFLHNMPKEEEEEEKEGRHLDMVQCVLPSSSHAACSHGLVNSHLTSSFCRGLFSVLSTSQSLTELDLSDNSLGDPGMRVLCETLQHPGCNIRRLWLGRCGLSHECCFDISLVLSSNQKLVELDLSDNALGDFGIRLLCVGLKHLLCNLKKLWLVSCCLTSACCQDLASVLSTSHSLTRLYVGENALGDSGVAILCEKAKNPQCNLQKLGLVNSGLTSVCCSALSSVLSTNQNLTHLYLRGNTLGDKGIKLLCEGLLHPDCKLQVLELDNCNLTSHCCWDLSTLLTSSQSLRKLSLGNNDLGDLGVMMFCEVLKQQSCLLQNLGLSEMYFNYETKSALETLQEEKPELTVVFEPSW
Sequence of X-box-binding protein 1 (P17861 whole entry): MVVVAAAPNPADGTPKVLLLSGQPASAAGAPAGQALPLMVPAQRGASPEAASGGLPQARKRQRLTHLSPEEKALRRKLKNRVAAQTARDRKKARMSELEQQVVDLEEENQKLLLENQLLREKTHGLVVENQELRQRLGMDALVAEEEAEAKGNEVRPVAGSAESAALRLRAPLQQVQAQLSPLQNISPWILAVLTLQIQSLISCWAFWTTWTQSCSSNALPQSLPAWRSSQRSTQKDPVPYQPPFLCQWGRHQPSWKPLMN
Sequence of Metabotropic glutamate receptor 4 (P31423 whole entry, the tested form may be a part): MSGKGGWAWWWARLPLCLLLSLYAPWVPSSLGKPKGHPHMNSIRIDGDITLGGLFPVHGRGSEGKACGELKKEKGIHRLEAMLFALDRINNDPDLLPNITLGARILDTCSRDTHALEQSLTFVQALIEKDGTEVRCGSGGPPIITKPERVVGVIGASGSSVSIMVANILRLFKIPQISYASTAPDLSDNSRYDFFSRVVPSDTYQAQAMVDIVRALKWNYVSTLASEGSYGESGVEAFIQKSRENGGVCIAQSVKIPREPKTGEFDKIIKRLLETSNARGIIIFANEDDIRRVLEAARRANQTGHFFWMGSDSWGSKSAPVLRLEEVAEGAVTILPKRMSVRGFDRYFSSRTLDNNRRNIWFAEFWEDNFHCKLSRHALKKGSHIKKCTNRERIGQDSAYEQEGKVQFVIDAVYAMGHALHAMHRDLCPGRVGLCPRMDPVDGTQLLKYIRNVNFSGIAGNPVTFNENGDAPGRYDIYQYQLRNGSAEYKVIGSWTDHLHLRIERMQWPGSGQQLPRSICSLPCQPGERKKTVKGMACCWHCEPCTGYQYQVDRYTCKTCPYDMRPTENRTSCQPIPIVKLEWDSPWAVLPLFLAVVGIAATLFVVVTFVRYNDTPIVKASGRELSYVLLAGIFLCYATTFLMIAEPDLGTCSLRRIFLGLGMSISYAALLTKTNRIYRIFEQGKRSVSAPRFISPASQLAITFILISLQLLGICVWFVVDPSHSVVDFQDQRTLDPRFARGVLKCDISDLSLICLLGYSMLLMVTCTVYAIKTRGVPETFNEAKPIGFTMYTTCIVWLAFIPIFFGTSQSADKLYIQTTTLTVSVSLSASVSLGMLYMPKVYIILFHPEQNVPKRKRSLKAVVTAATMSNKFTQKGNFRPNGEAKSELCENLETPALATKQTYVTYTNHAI

The EC50 is the concentration giving half of the maximal effect. Regarding `O=C(Nc1ccc(NC(=O)c2ccccc2Cl)c(F)c1)c1ccccn1`, the EC50 in test [1] is 0.74 µM (active).
Broadly, the IC50 is the point on the concentration scale where inhibition reaches its midpoint. Turning to `c1ccc(OCc2nnnn2-c2ccccc2)cc1`, the IC50 in test [2] is 6 µM (active).
Consider `S=C(Nc1ccc(Oc2ccccc2)cc1)Nc1cccnc1`, for which the figures for the EC50 in test [3] and in test [4] were 7.25 µM (active) and 4.45 µM (active), respectively.
Take `O=C1CC(c2ccccc2Cl)CC(=O)C1=CNc1ccccc1` (stereo not drawn): the “Absolute IC50 (XBP1)” value on X-box-binding protein 1 worked out at 10 µM.
As to `O=C(O)CSc1ncnc2scc(-c3ccc(Br)cc3)c12`, the EC50 in test [5] and in test [6] was > 55.7 µM (not active) throughout.
Consider `CC(=O)N1CCc2cc(S(=O)(=O)CCC(=O)N3CCN(C(=O)c4ccco4)CC3)ccc21`, for which the EC50 in test [7] is reported as > 50 µM (not active).
